Read-outs that look alike come from different tables or passages of the source.
Assays:
CAL33 = assay: XTT cell viability assay, CAL33; type: cell-based; conditions: Homo sapiens, CAL-33; XTT assay (48 h); standard deviation of 10%; read-out: EC50 (μM) Head and Neck CAL33
Description: (§1) Fifty microliters of sodium 3′-[1-phenylaminocarbonyl)-3,4-tetrazolium]-bis(4-methoxy-6-nitro) benzene sulfonic acid hydrate (XTT) reagent was added to each well. The assay is based on the cleavage of the yellow tetrazolium salt XTT to form an orange formazan dye by metabolically active cells. The absorbance of the formazan product, reflecting cell viability, was measured at 490 nm. Each assay was performed in quadruplicate.
(§2) Compounds #1-#14 have been assayed as potential anti-proliferative agents against a panel of human breast head and neck, and kidney tumor cells and hematological malignancies, selected on the basis of their aggressiveness (e.g. incurable triple-negative breast cancer cells: MDA-MB-231; kidney ccRCC cells: RCC4, A498 and 786-O and 786R; head and neck cancer cells: CAL33, CAL33RR, CAL27, and CAL27RR; acute myeloid cell lines: OCI-AML2, OCI-AML3, MolM13, and MolM14; myelodysplastic cell line: SM1; and chronic myeloid cell line: CML). All these cell lines share as common denominator the expression of CXCR1 and CXCR2. The EC50 values have been measured by a XTT colorimetric assay, and compared to those of SB-225002, used as a reference; the results are listed in Table 1.

CAL33RR = assay: XTT cell viability assay, CAL33RR; type: cell-based; conditions: Homo sapiens, light or radiation study; XTT assay (48 h); resistant to irradiation and cisplatin; standard deviation of 10%; read-out: EC50 (μM) Head and Neck CAL33RR
Description: as §1, §2

CAL27 = assay: XTT cell viability assay, CAL27; type: cell-based, human; conditions: for EC50: XTT assay (48 h), standard deviation of 10%, read-out: EC50 (μM) Head and Neck CAL27
Description: A, B: Naive (Cal27, A), and cisplatine-resistant (Cal27R, B) Cal27 cells, were treated with compound #1 or cisplatine (1 to 10 μM) for 48 hr. Cell viability was measured by XTT assays;
C, D: Cal27 (C), cal27R (D), were treated with 2.5 μM compound #1, 2.5 μM cisplatin for 24 h to 96 h. The metabolism of cells was measured by XTT assay.
as §1, §2

[1] = tested on: healthy human fibroblasts (FHN); assay: FACS analysis of cell death markers (AV, PI), healthy fibroblasts; type: cell-based; conditions: 5 μM, 48 h
Description: FIG. 1: Observation by FACS analyses of early (Annexin AV) and late (Propidium Iodide, PI) apoptosis markers expressed by healthy and malignant cells after treatment with compounds #1 and #2 at 5 μM. CT: negative control.
(§3) Apoptosis analysis: After stimulation, cells were washed with ice-cold PBS and were stained with the annexin-V-fluos staining kit (Roche, Meylan, France) according to the manufacturer's procedure. Fluorescence was measured by using the FL2 (AV) and FL3 (propidium iodide, PI) channels of a fluorescence-activated cell sorter apparatus (Calibur cytometer).
To complete these XTT assays, malignant (ccRCC and hematological) and healthy (human fibroblasts FHN) cells have been grown with compounds #1 or #2, and after 48h the expression of cell death markers (AV and PI) has been quantified by FACS analyses (FIG. 1).

[2] = tested on: primary normal kidney cells (15S); assay: XTT cell viability, primary normal kidney cells; type: cell-based, human; conditions: up to 5 μM, XTT 48 h
Description: A: Primary RCC cells (TF and CC) and normal renal cells (15S) were treated with compound #1 (1 to 5 μM) for 48 h. Cell viability was measured by XTT assays;
as §1
The biological effects of compound #1 on primary RCC tumors cells and normal renal cells harvested from patients suffering from kidney cancer have been explored (FIG. 4).

healthy cells 15S = assay: FACS apoptosis markers, normal renal cells; type: cell-based, human; conditions: 48 h
Description: C: Primary RCC cells (TF and CC) and normal renal cells (15S) were treated with compound #1 (1 to 5 μM) for 48 h. Cells were stained with the PI/annexin-V-fluos staining kit according to the manufacturer's indications. Histograms show both annexin-V+/PI− cells (open bars) and annexin-V+/PI+ cells (filled bars). *P<0.05; **P<0.01; ***P<0.001.
as §3

[3] = Stability in cellulo by UPLC/HRMS on 786-O cell line; type: in vitro ADME; conditions: 24h treatment at room temperature
Source text: The stability of compound #1 was first assayed through UPLC/HRMS analyses in cellulo on the 786-O cell line.

[4] = Pharmacokinetics after oral gavage in mice; type: in vivo; conditions: oral gavage 50 mg/Kg
Description: Compound #1 was then formulated at 7.6 mg/mL, and administrated by oral gavage at 50 mg/Kg (n=12 mice) and pharmacokinetic parameters have been measured (Table 2).

For `O=C(Nc1cccc(Cl)c1)Nc1nc2ccc([N+](=O)[O-])cc2s1` [Compound #1, 1-(3-chlorophenyl)-3-(6-nitrobenzo[d]thiazol-2-yl)urea], the EC50 (CAL33) was 2 µM, the EC50 (CAL33RR) was 3 µM and the “time of treatment to total inhibition of proliferation” value (CAL27; Cal27 cells, 2.5 μM, XTT 24 h to 96 h) was “approximately 70 hours”. The EC50 (CAL27; Homo sapiens, CAL-27, 48 h) was 2 µM, the EC50 (CAL27) was 3 µM and the “apoptosis of healthy human fibroblasts (FHN)” value [1] was “no increased apoptosis over the control experiment”. For the same compound, the “effect on primary normal kidney cells (15S)” value [2] was “no effect”, the “apoptosis markers in healthy cells 15S” value (healthy cells 15S) was “not the case with healthy cells 15S” and the “degradation (stability in cellulo)” value [3] was “No degradation”. For the same compound, the half-life ([4]; mouse, in vivo) was greater than 3.17 h, the AUC ([4]; mouse, in vivo, po, 50 mg/kg, read-out: AUC lastPO (converted)) was roughly 1420 ng·h/mL and the Tmax [4] was 0.5 h. For the same compound, the “AUC lastPO” value ([4]; 50 mg/kg) was 84965 ± 9367 ng·min/mL.
